Measurements from ChEMBL document CHEMBL1201862, “PubChem BioAssay data set” (2004).
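1) Cells in 96-well plates. 2) Compound, 48 h, 5 concentrations. 3) Linear interpolation between surrounding doses. 4) Unreached endpoint = highest concentration. GI50: concentration for 50% inhibition of growth.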 Activity calls are given as the source filed them. Cut-off read from the data, not from the text of the source: active = GI50 up to about 1.1 µM and inactive = higher.

How the values were obtained:
Assay in all cases: NCI-60 cell line screen, 48 h
A549 = test system: A549
BT-549 = test system: BT-549
CAKI-1 = test system: CAKI-1
CCRF-CEM = test system: CCRF-CEM
COLO 205 = test system: COLO 205
IGROV-1 = test system: IGROV-1
K562 = test system: K562
KM12 = test system: KM12
M14 = test system: M14
MDA-N = test system: MDA-N
NCI-H226 = test system: NCI-H226
NCI-H460 = test system: NCI-H460
OVCAR-3 = test system: OVCAR-3
SK-MEL-2 = test system: SK-MEL-2
SK-MEL-5 = test system: SK-MEL-5
SK-OV-3 = test system: SK-OV-3
SNB-75 = test system: SNB-75
TK-10 = test system: TK-10
UACC-257 = test system: UACC-257
RXF 393 = test system: RXF 393

Row | SMILES | GI50 (A549) | GI50 (BT-549) | GI50 (CAKI-1) | GI50 (CCRF-CEM) | GI50 (COLO 205) | GI50 (IGROV-1) | GI50 (K562) | GI50 (KM12) | GI50 (M14) | GI50 (MDA-N) | GI50 (NCI-H226) | GI50 (NCI-H460) | GI50 (OVCAR-3) | GI50 (SK-MEL-2) | GI50 (SK-MEL-5) | GI50 (SK-OV-3) | GI50 (SNB-75) | GI50 (TK-10) | GI50 (UACC-257) | GI50 (RXF 393)
1 | CC1(C23CC4CC(CC(C4)C2)C3)n2c(=O)n(-c3ccccc3)c(=O)n2C1(C)C12CC3CC(CC(C3)C1)C2 (stereo unspecified) | > 100 µM (inactive) | > 100 µM (inactive) | > 100 µM (inactive) | > 100 µM (inactive) | > 100 µM (inactive) | > 100 µM (inactive) | > 100 µM (inactive) | > 100 µM (inactive) | > 100 µM (inactive) | > 100 µM (inactive) | > 100 µM (inactive) | > 100 µM (inactive) | > 100 µM (inactive) | > 100 µM (inactive) | > 100 µM (inactive) | > 100 µM (inactive) | 74.1 µM (inactive) | > 100 µM (inactive) | > 100 µM (inactive) | –
2 | CCOC(=O)c1c[nH]c(C(=O)C=[N+]=[N-])c1C1CCN(CC)C1=S (stereo unspecified) | > 100 µM (inactive) | > 100 µM (inactive) | > 100 µM (inactive) | – | 63.5 µM (inactive) | > 100 µM (inactive) | > 100 µM (inactive) | > 100 µM (inactive) | > 100 µM (inactive) | > 100 µM (inactive) | – | 93.3 µM (inactive) | 94 µM (inactive) | > 100 µM (inactive) | > 100 µM (inactive) | > 100 µM (inactive) | > 100 µM (inactive) | > 100 µM (inactive) | > 100 µM (inactive) | > 100 µM (inactive)
3 | Clc1c(Cl)c(Cl)c2nn(C3CCCO3)nc2c1Cl (stereo unspecified) | 37.4 µM (inactive) | 26.8 µM (inactive) | 80.4 µM (inactive) | 82.2 µM (inactive) | 55.6 µM (inactive) | 32.4 µM (inactive) | 40.7 µM (inactive) | – | > 100 µM (inactive) | 30.5 µM (inactive) | > 100 µM (inactive) | – | 43 µM (inactive) | 68.1 µM (inactive) | 25.5 µM (inactive) | > 100 µM (inactive) | – | 69.8 µM (inactive) | 72.6 µM (inactive) | > 100 µM (inactive)
4 | O=C(O)CN(CC(=O)O)C1CCCCC1N1CC(=O)OC(=O)C1 (stereo unspecified) | > 100 µM (inactive) | > 100 µM (inactive) | > 100 µM (inactive) | > 100 µM (inactive) | > 100 µM (inactive) | 49.1 µM (inactive) | 71.8 µM (inactive) | > 100 µM (inactive) | > 100 µM (inactive) | > 100 µM (inactive) | > 100 µM (inactive) | > 100 µM (inactive) | > 100 µM (inactive) | > 100 µM (inactive) | > 100 µM (inactive) | > 100 µM (inactive) | 17.2 µM (inactive) | > 100 µM (inactive) | > 100 µM (inactive) | –
5 | CC(C)(C)C1=CC(=CC=C2C=CN(CCCCCCCCCCCO)C=C2)C=C(C(C)(C)C)C1=O | 1.62 µM (inactive) | 2.12 µM (inactive) | 2.48 µM (inactive) | 0.652 µM (active) | 1.69 µM (inactive) | 0.815 µM (active) | 1.06 µM (active) | 1.83 µM (inactive) | 1.75 µM (inactive) | 1.87 µM (inactive) | – | 2.01 µM (inactive) | 1.01 µM (active) | 1.83 µM (inactive) | 1.73 µM (inactive) | 2.16 µM (inactive) | 1.82 µM (inactive) | 1.5 µM (inactive) | 1.87 µM (inactive) | 0.9 µM (active)
6 | Cc1cn(C2CC(n3cc(Cn4cc(Br)c(=O)[nH]c4=O)nn3)C(CO)O2)c(=O)[nH]c1=O (stereo unspecified) | > 100 µM (inactive) | > 100 µM (inactive) | > 100 µM (inactive) | 0.668 µM (active) | > 100 µM (inactive) | 80 µM (inactive) | – | 47.3 µM (inactive) | > 100 µM (inactive) | 62.2 µM (inactive) | – | – | > 100 µM (inactive) | > 100 µM (inactive) | 89.5 µM (inactive) | 63.2 µM (inactive) | 60.5 µM (inactive) | > 100 µM (inactive) | > 100 µM (inactive) | > 100 µM (inactive)
7 | O=C(O)c1ccc(/C=N\N(CCO)C2=NCCN2)cc1 | > 100 µM (inactive) | > 100 µM (inactive) | – | > 100 µM (inactive) | > 100 µM (inactive) | > 100 µM (inactive) | > 100 µM (inactive) | > 100 µM (inactive) | > 100 µM (inactive) | > 100 µM (inactive) | > 100 µM (inactive) | > 100 µM (inactive) | > 100 µM (inactive) | > 100 µM (inactive) | > 100 µM (inactive) | > 100 µM (inactive) | 66.5 µM (inactive) | > 100 µM (inactive) | – | > 100 µM (inactive)
8 | COc1ccc(C2=C(Cl)c3cc(OC)c(OC)cc3C2=O)cc1OC | 36.9 µM (inactive) | 16.1 µM (inactive) | 2.28 µM (inactive) | 3.93 µM (inactive) | 3.16 µM (inactive) | 17.5 µM (inactive) | – | 17.4 µM (inactive) | 4.84 µM (inactive) | 18.5 µM (inactive) | 38.7 µM (inactive) | – | 1.77 µM (inactive) | 14.4 µM (inactive) | 15.9 µM (inactive) | 21 µM (inactive) | 61 µM (inactive) | 13 µM (inactive) | 4.28 µM (inactive) | 5.7 µM (inactive)
9 | COc1ccc(C(=O)c2c(-c3ccccc3NC(=O)C(F)(F)F)[nH]c3ccccc23)cc1 | 5.66 µM (inactive) | 14.5 µM (inactive) | 6.41 µM (inactive) | 2.46 µM (inactive) | 4.05 µM (inactive) | 10.6 µM (inactive) | 5.65 µM (inactive) | 3.88 µM (inactive) | 14.3 µM (inactive) | 15.3 µM (inactive) | 14.7 µM (inactive) | 4.26 µM (inactive) | 3.83 µM (inactive) | 4.02 µM (inactive) | 8.95 µM (inactive) | 14.6 µM (inactive) | 2.47 µM (inactive) | 11.6 µM (inactive) | 15.6 µM (inactive) | –
10 | Cc1cnc2c(c1)C(=O)N(c1ccc([N+](=O)[O-])cc1)S2(=O)=O | 95.9 µM (inactive) | 36.1 µM (inactive) | > 100 µM (inactive) | 82.4 µM (inactive) | > 100 µM (inactive) | 30.3 µM (inactive) | – | > 100 µM (inactive) | > 100 µM (inactive) | 93.5 µM (inactive) | 19.9 µM (inactive) | > 100 µM (inactive) | > 100 µM (inactive) | 5.47 µM (inactive) | 71.3 µM (inactive) | > 100 µM (inactive) | 61.1 µM (inactive) | > 100 µM (inactive) | > 100 µM (inactive) | –
11 | COC(=O)c1c(O)ccc2c1c1c(n2Cc2ccc(Cl)cc2Cl)C(=O)c2ccccc2C1 | 41.3 µM (inactive) | 75.9 µM (inactive) | – | 23.2 µM (inactive) | 45.7 µM (inactive) | 50.8 µM (inactive) | 52.1 µM (inactive) | 22 µM (inactive) | 89.1 µM (inactive) | 52.8 µM (inactive) | 27.6 µM (inactive) | 33.3 µM (inactive) | 49.2 µM (inactive) | 60.4 µM (inactive) | 89.5 µM (inactive) | 47.9 µM (inactive) | 20 µM (inactive) | > 100 µM (inactive) | 42.2 µM (inactive) | 31 µM (inactive)
12 | NS(=O)(=O)c1ccc(NCc2cccc3c(=O)c4ccc(Cl)cc4oc23)cc1 | > 86.1 µM (inactive) | 42.5 µM (inactive) | 41 µM (inactive) | 4.75 µM (inactive) | 55.1 µM (inactive) | 20.2 µM (inactive) | 12.5 µM (inactive) | 21.4 µM (inactive) | 27.8 µM (inactive) | 23.1 µM (inactive) | > 76.7 µM (inactive) | – | 54.8 µM (inactive) | 68.7 µM (inactive) | 59.4 µM (inactive) | > 71.8 µM (inactive) | 37.8 µM (inactive) | > 72.9 µM (inactive) | 60.4 µM (inactive) | 27.1 µM (inactive)
13 | COC(=O)CCC(NC(=O)C(C)NC(=O)COC1C(O)C(OC(=O)CCNc2c3ccccc3nc3cccc([N+](=O)[O-])c23)OC(OCc2ccccc2)C1NC(C)=O)C(N)=O (stereo unspecified) | > 10 µM (inactive) | > 10 µM (inactive) | – | > 10 µM (inactive) | – | > 10 µM (inactive) | 1.91 µM (inactive) | 5.71 µM (inactive) | 2.79 µM (inactive) | 2.24 µM (inactive) | > 10 µM (inactive) | > 10 µM (inactive) | 5.42 µM (inactive) | 1.93 µM (inactive) | 1.61 µM (inactive) | > 10 µM (inactive) | > 10 µM (inactive) | > 10 µM (inactive) | > 10 µM (inactive) | 3.05 µM (inactive)
14 | CCOC(=O)C(NNS(=O)(=O)c1ccc(C)cc1)S(=O)(=O)C(F)(F)C(F)(F)C(F)(F)C(F)(F)F (stereo unspecified) | > 100 µM (inactive) | > 100 µM (inactive) | > 100 µM (inactive) | > 10 µM (inactive) | > 100 µM (inactive) | > 100 µM (inactive) | > 100 µM (inactive) | > 100 µM (inactive) | > 100 µM (inactive) | > 100 µM (inactive) | > 100 µM (inactive) | > 100 µM (inactive) | > 100 µM (inactive) | > 100 µM (inactive) | > 100 µM (inactive) | > 100 µM (inactive) | > 100 µM (inactive) | > 100 µM (inactive) | > 100 µM (inactive) | –
15 | CC1(C)OCC2OC3(c4nc(C#N)c(N)o4)OC(C)(C)OC3C2O1 (stereo unspecified) | > 100 µM (inactive) | > 100 µM (inactive) | > 100 µM (inactive) | > 100 µM (inactive) | > 100 µM (inactive) | > 100 µM (inactive) | > 53.3 µM (inactive) | > 100 µM (inactive) | > 100 µM (inactive) | > 100 µM (inactive) | > 100 µM (inactive) | > 100 µM (inactive) | > 100 µM (inactive) | > 100 µM (inactive) | > 100 µM (inactive) | > 100 µM (inactive) | > 100 µM (inactive) | > 100 µM (inactive) | > 100 µM (inactive) | –
